# Experimental data taken from ChEMBL document CHEMBL5257035, “Nucleoside Derived Antibiotics to Fight Microbial Drug Resistance: New Utilities for an Established Class of Drugs?” (J Med Chem, 2016).
# How the values were obtained:
# Candida albicans [1] = test: Antifungal activity against Candida albicans assessed as inhibition of fungal growth; type: functional
# Fusarium oxysporum = test: Antifungal activity against Fusarium oxysporum assessed as inhibition of fungal growth; type: functional
# Cryptococcus neoformans [2] = test: Antifungal activity against Cryptococcus neoformans assessed as fungal growth inhibition; type: functional
# Cryptococcus neoformans [3] = test: Antifungal activity against Cryptococcus neoformans assessed as reduction in fungal growth; type: functional
# Aspergillus niger = test: Antifungal activity against Aspergillus niger MTCC 282 assessed as reduction in microbial growth measured after 48 hrs by broth dilution method; type: functional
# Coccidioides immitis = test: Antifungal activity against Coccidioides immitis assessed as reduction in fungal growth; type: functional
# [4] = biological target: T1, Phospho-N-acetylmuramoyl-pentapeptide-transferase (Escherichia coli K-12, UniProt P0A6W3); test: Inhibition of MraY in Escherichia coli K12
# T1 sequence (P0A6W3 whole entry): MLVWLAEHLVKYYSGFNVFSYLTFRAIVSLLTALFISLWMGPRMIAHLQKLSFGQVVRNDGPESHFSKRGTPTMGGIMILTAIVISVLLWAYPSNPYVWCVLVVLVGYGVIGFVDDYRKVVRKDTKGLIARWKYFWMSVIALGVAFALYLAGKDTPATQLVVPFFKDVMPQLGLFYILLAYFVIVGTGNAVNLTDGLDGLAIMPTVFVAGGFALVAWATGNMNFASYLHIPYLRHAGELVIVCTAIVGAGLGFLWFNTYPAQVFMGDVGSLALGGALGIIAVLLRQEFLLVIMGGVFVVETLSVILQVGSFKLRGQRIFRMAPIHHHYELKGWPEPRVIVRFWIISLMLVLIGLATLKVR
# Escherichia coli = test: Antibacterial activity against Escherichia coli ATCC 25922 assessed as bacterial growth inhibition measured after 48 hrs by microdilution method; type: functional
# [5] = system: Mycolicibacterium smegmatis; test: Antibacterial activity against Mycobacterium smegmatis SANK75075 assessed as bacterial growth inhibition; type: functional
# Pseudomonas aeruginosa = test: Antibacterial activity against Pseudomonas aeruginosa assessed as bacterial growth inhibition; type: functional
# Mycobacterium kansasii = test: Antimycobacterial activity against Mycobacterium kansasii assessed as microbial growth reduction; type: functional
# Mycobacterium avium = test: Antimycobacterial activity against Mycobacterium avium assessed as microbial growth reduction; type: functional
# [6] = system: Mycobacterium intracellulare; test: Antimycobacterial activity against Mycobacterium intracellulare assessed as microbial growth reduction; type: functional
# Enterococcus faecalis = test: Antimicrobial activity against Enterococcus faecalis 10785 assessed as reduction in microbial growth by broth microdilution method; type: functional
# Staphylococcus aureus = test: Antimicrobial activity against methicillin-resistant Staphylococcus aureus assessed as reduction in microbial growth by broth microdilution method; type: functional
# Candida albicans [7] = test: Antifungal activity against Candida albicans assessed as fungal growth inhibition measured after 24 hrs by micro broth dilution method; type: functional
# Aspergillus fumigatus [8] = test: Antifungal activity against Aspergillus fumigatus assessed as fungal growth inhibition; type: functional
# Cryptococcus neoformans [9] = test: Antifungal activity against Cryptococcus neoformans assessed as fungal growth inhibition measured after 24 hrs by micro broth dilution method; type: functional
# [10] = Inhibition of Bacterial MraY; design: species or system Bacteria
# [11] = Cytotoxicity against human HepG2 cells assessed as reduction in cell viability incubated for 72 hrs by MTT assay; type: toxicity, cell-based
# [12] = Inhibition of Candida albicans SC5314 chitin synthase using UDP-GlcNAc as substrate incubated for 1 hr
# Aspergillus fumigatus [13] = test: Antifungal activity against Aspergillus fumigatus assessed as inhibition of fungal growth; type: functional
compound,measurement,setting,value
CC1(C)O[C@@H]2[C@H](O1)[C@@H](Cn1cc(COc3ccc(Cl)cc3)nn1)O[C@H]2n1ccc(=O)[nH]c1=O,MIC,Candida albicans [1],24 µg/mL
same,MIC,Fusarium oxysporum,32 µg/mL
same,MIC,Cryptococcus neoformans [2],8 µg/mL
CC(C)C[C@H](N)C(=O)N[C@H](C(=O)O)[C@@H]1C[C@@H](O)[C@@H](O)[C@H](n2ccc(=O)[nH]c2=O)O1,MIC,Cryptococcus neoformans [3],0.25 µg/mL
same,MIC,Aspergillus niger,0.03 µg/mL
same,MIC,Coccidioides immitis,0.25 µg/mL
CCCCNC[C@@H](O[C@@H]1O[C@H](CN)[C@@H](O)[C@H]1O)[C@H]1O[C@@H](n2ccc(=O)[nH]c2=O)[C@H](O)[C@@H]1O,IC50,[4],330 nM
same,MIC,Escherichia coli,2.5 µg/mL
CO[C@H]1[C@@H](O)[C@H](n2ccc(=O)[nH]c2=O)O[C@@H]1[C@@H](O[C@@H]1OC(C(=O)NCCCSC)=C[C@@H](O)[C@H]1O)C(N)=O,MIC,[5],12.5 µg/mL
NC(=O)c1ncn([C@@H]2O[C@H](CO)[C@@H](O)[C@H]2O)n1 [RIBAVIRIN],MIC,Pseudomonas aeruginosa,3 µg/mL
CCCCCCCCCNC[C@@H](O[C@@H]1O[C@H](CN)[C@@H](O)[C@H]1O)[C@H]1O[C@@H](n2ccc(=O)[nH]c2=O)[C@H](O)[C@@H]1O,IC50,[4],330 nM
same,MIC,Escherichia coli,2.5 µg/mL
CCCCCCCCCCCCCCC(=O)O[C@@H]1[C@H](OC)[C@@H]([C@@H](O[C@@H]2OC(C(=O)N[C@H]3CCC[C@@H](C)NC3=O)=C[C@@H](O)[C@H]2O)C(N)=O)O[C@H]1n1ccc(=O)[nH]c1=O,MIC,Mycobacterium kansasii,0.063 µg/mL
same,MIC,Mycobacterium avium,0.063 µg/mL
same,MIC,[6],0.063 µg/mL
CC(C)[C@H](O)[C@H](N)C(=O)NCCCN[C@H](C(=O)OC(C)(C)C)[C@@H](O)[C@H]1O[C@@H](n2ccc(=O)[nH]c2=O)[C@H](O[Si](C)(C)C(C)(C)C)[C@@H]1O[Si](C)(C)C(C)(C)C,MIC,Enterococcus faecalis,1 µg/mL
same,MIC,Staphylococcus aureus,1 µg/mL
CCCCCCCCCC(=O)O[C@@H]1[C@H](OC)[C@@H]([C@@H](O[C@@H]2OC(C(=O)N[C@H]3CCC[C@@H](C)NC3=O)=C[C@@H](O)[C@H]2O)C(N)=O)O[C@H]1n1ccc(=O)[nH]c1=O,MIC,Mycobacterium kansasii,0.063 µg/mL
same,MIC,Mycobacterium avium,0.063 µg/mL
same,MIC,[6],0.063 µg/mL
CCCCCCCCCCCNC[C@@H](O[C@@H]1O[C@H](CN)[C@@H](O)[C@H]1O)[C@H]1O[C@@H](n2ccc(=O)[nH]c2=O)[C@H](O)[C@@H]1O,IC50,[4],330 nM
same,MIC,Escherichia coli,2.5 µg/mL
Nc1cccc2c1ncn2[C@@H]1O[C@H](CSCCC(=O)O)[C@@H](O)[C@H]1O,MIC,Candida albicans [7],0.19 µM
same,MIC,Aspergillus fumigatus [8],0.19 µM
same,MIC,Cryptococcus neoformans [9],0.19 µM
CCCCCCCCCCCCCC(=O)O[C@@H]1[C@H](OC)[C@@H]([C@@H](O[C@@H]2OC(C(=O)N[C@H]3CCC[C@@H](C)NC3=O)=C[C@@H](O)[C@H]2O)C(N)=O)O[C@H]1n1ccc(=O)[nH]c1=O,MIC,Mycobacterium kansasii,0.063 µg/mL
same,MIC,Mycobacterium avium,0.063 µg/mL
same,MIC,[6],0.063 µg/mL
COc1ccc(OCc2cn(C[C@H]3O[C@@H](n4ccc(=O)[nH]c4=O)[C@@H]4OC(C)(C)O[C@@H]43)nn2)cc1,MIC,Candida albicans [1],24 µg/mL
same,MIC,Fusarium oxysporum,32 µg/mL
same,MIC,Cryptococcus neoformans [2],8 µg/mL
CCCCCCCCCNC(=O)C1=C[C@@H](O)[C@@H](O)[C@H](O[C@@H](C(N)=O)[C@H]2O[C@@H](n3ccc(=O)[nH]c3=O)[C@H](O)[C@@H]2OC)O1,MIC,[5],12.5 µg/mL
CCOC(=O)CCSC[C@H]1O[C@@H](n2cnc3c(N)cccc32)[C@H](O)[C@@H]1O,MIC,Candida albicans [7],0.19 µM
same,MIC,Aspergillus fumigatus [8],0.19 µM
same,MIC,Cryptococcus neoformans [9],0.19 µM
CCCCCCCCCCCCCCC[C@@H](NC(=O)[C@@H](NC(=O)N[C@H](C(=O)O)C(C)C)[C@@H]1CCNC(=N)N1)C(=O)NCCCNC(C(=O)O)[C@H](O[C@@H]1O[C@H](CN)[C@@H](O)[C@H]1O)[C@H]1O[C@@H](n2ccc(=O)[nH]c2=O)[C@H](O)[C@@H]1O (stereo not given in full),MIC,Enterococcus faecalis,0.25 µg/mL
same,IC50,[10],740 nM
same,MIC,Staphylococcus aureus,2 µg/mL
same,IC50 at 72 h,[11],> 100 µg/mL
CCCCCCCCCCCC(=O)O[C@@H]1[C@H](OC)[C@@H]([C@@H](O[C@@H]2OC(C(=O)N[C@H]3CCC[C@@H](C)NC3=O)=C[C@@H](O)[C@H]2O)C(N)=O)O[C@H]1n1ccc(=O)[nH]c1=O,MIC,Mycobacterium kansasii,0.063 µg/mL
same,MIC,Mycobacterium avium,0.063 µg/mL
same,MIC,[6],0.063 µg/mL
N[C@@H](Cc1cc2ccccc2c2ccccc12)C(=O)N[C@@H](C(=O)O)[C@H]1O[C@@H](n2ccc(=O)[nH]c2=O)[C@H](O)[C@@H]1O,IC50,[12],0.31 µg/mL
Nc1ccc(C(=O)OC[C@H]2O[C@@H](n3ccc(=O)[nH]c3=O)[C@H](O)[C@@H]2O)c(O)c1,MIC,Aspergillus fumigatus [13],1000 µg/mL
same,MIC,Candida albicans [1],1000 µg/mL
